According to the NIST ThermoML archive (doi:10.1021/je100102q):

Settings: Gas, isochoric method

C=C(F)C(F)(F)F [2,3,3,3-tetrafluoro-1-propene]
Settings | molar volume [m3/mol]
243.07 K, 98 kPa | 0.01911
243.08 K, 84.5 kPa | 0.02278
248.02 K, 86.5 kPa | 0.02278
249.15 K, 87 kPa | 0.02278
253.01 K, 105.1 kPa | 0.01912
253.07 K, 88.5 kPa | 0.02278
258.03 K, 90.4 kPa | 0.02279
262.93 K, 171.7 kPa | 0.01189
262.97 K, 109.8 kPa | 0.01913
263.08 K, 92.4 kPa | 0.02279
267.98 K, 94.2 kPa | 0.0228
272.84 K, 179.3 kPa | 0.01189
272.92 K, 114.4 kPa | 0.01914
273.04 K, 96.2 kPa | 0.0228
277.99 K, 98 kPa | 0.02281
282.62 K, 118.8 kPa | 0.01914
282.68 K, 186.6 kPa | 0.0119
282.75 K, 430.2 kPa | 0.004676
282.95 K, 99.9 kPa | 0.02281
283 K, 394.6 kPa | 0.005292
287.79 K, 101.7 kPa | 0.02282
287.93 K, 447.1 kPa | 0.004677
287.99 K, 403.8 kPa | 0.005293
292.58 K, 193.9 kPa | 0.0119
292.76 K, 103.6 kPa | 0.02282
292.81 K, 457.2 kPa | 0.004678
292.95 K, 412.8 kPa | 0.005295
292.99 K, 123.5 kPa | 0.01915
293.1 K, 508.2 kPa | 0.004171
297.8 K, 105.5 kPa | 0.02283
297.89 K, 467.6 kPa | 0.00468
298.08 K, 422.1 kPa | 0.005296
302.7 K, 201.4 kPa | 0.01191
302.91 K, 477.9 kPa | 0.004681
303.09 K, 431.1 kPa | 0.005297
303.11 K, 703.6 kPa | 0.002968
303.12 K, 107.4 kPa | 0.02284
303.12 K, 128.1 kPa | 0.01916
303.12 K, 531.3 kPa | 0.004173
308.1 K, 439.9 kPa | 0.005298
308.11 K, 109.3 kPa | 0.02284
308.11 K, 488.4 kPa | 0.004682
313.09 K, 448.7 kPa | 0.005299
313.11 K, 111.2 kPa | 0.02285
313.11 K, 498.5 kPa | 0.004683
313.11 K, 554 kPa | 0.004174
313.11 K, 738.1 kPa | 0.002969
313.12 K, 132.7 kPa | 0.01917
313.12 K, 209 kPa | 0.01192
318.09 K, 457.5 kPa | 0.0053
318.09 K, 508.5 kPa | 0.004684
318.1 K, 113 kPa | 0.02285
318.11 K, 861.5 kPa | 0.002534
323.07 K, 518.3 kPa | 0.004685
323.08 K, 114.9 kPa | 0.02286
323.08 K, 466.1 kPa | 0.005302
323.09 K, 216.2 kPa | 0.01192
323.09 K, 576.5 kPa | 0.004176
323.09 K, 771.8 kPa | 0.00297
323.1 K, 137.1 kPa | 0.01918
328.06 K, 474.7 kPa | 0.005303
328.06 K, 528.3 kPa | 0.004686
328.06 K, 901.7 kPa | 0.002535
328.07 K, 116.8 kPa | 0.02286
333.04 K, 118.8 kPa | 0.02286
333.04 K, 483.3 kPa | 0.005304
333.04 K, 538.1 kPa | 0.004687
333.05 K, 537.8 kPa | 0.004687
333.05 K, 598.7 kPa | 0.004178
333.05 K, 804.7 kPa | 0.002972
333.06 K, 141.6 kPa | 0.01919
333.06 K, 223.4 kPa | 0.01192
338 K, 1538.8 kPa | 0.001325
338.01 K, 491.8 kPa | 0.005305
338.02 K, 941.5 kPa | 0.002536
338.03 K, 120.6 kPa | 0.02287
338.03 K, 547.6 kPa | 0.004688
342.99 K, 146.1 kPa | 0.0192
342.99 K, 500.3 kPa | 0.005306
343 K, 122.5 kPa | 0.02287
343 K, 230.6 kPa | 0.01193
343.01 K, 557.3 kPa | 0.004689
343.01 K, 620.6 kPa | 0.00418
343.02 K, 837.4 kPa | 0.002973
347.94 K, 1624.6 kPa | 0.001325
347.94 K, 2217.8 kPa | 0.000789
347.96 K, 508.8 kPa | 0.005307
347.97 K, 124.3 kPa | 0.02288
347.98 K, 980.2 kPa | 0.002537
347.98 K, 2157.7 kPa | 0.000833
347.99 K, 567 kPa | 0.00469
352.91 K, 517.2 kPa | 0.005309
352.91 K, 2303.2 kPa | 0.000789
352.96 K, 126.1 kPa | 0.02288
352.96 K, 576.6 kPa | 0.004691
352.96 K, 642.4 kPa | 0.004182
352.96 K, 869.4 kPa | 0.002974
352.98 K, 150.6 kPa | 0.0192
352.98 K, 237.7 kPa | 0.01194
352.99 K, 2237.2 kPa | 0.000833
357.86 K, 2385.6 kPa | 0.000789
357.88 K, 525.6 kPa | 0.00531
357.92 K, 128 kPa | 0.02289
357.93 K, 586.2 kPa | 0.004692
357.93 K, 1018.7 kPa | 0.002538
357.95 K, 1709 kPa | 0.001326
357.95 K, 2314.1 kPa | 0.000833
362.83 K, 2467.7 kPa | 0.000789
362.86 K, 534 kPa | 0.005311
362.89 K, 129.8 kPa | 0.02289
362.89 K, 2389.2 kPa | 0.000833
362.92 K, 595.8 kPa | 0.004693
362.92 K, 664 kPa | 0.004184
362.92 K, 3067.5 kPa | 0.000251
362.93 K, 155 kPa | 0.01921
362.93 K, 901.2 kPa | 0.002976
362.96 K, 244.9 kPa | 0.01194
367.8 K, 2548.9 kPa | 0.000789
367.83 K, 542.5 kPa | 0.005312
367.87 K, 131.9 kPa | 0.0229
367.88 K, 1057 kPa | 0.002539
367.88 K, 2463.9 kPa | 0.000834
367.89 K, 605.3 kPa | 0.004694
367.92 K, 1791.4 kPa | 0.001326
367.92 K, 3386.9 kPa | 0.000251
372.8 K, 2629.5 kPa | 0.000789
372.81 K, 550.9 kPa | 0.005313
372.82 K, 133.8 kPa | 0.0229
372.84 K, 932.4 kPa | 0.002977
372.85 K, 1075.9 kPa | 0.00254
372.85 K, 2537.2 kPa | 0.000834
372.87 K, 614.8 kPa | 0.004695
372.88 K, 159.4 kPa | 0.01922
372.88 K, 252 kPa | 0.01195
372.88 K, 685.4 kPa | 0.004185
372.88 K, 3715.9 kPa | 0.000251
